From patent US20230295096A1, “PYRAZOLE CARBOXAMIDE COMPOUNDS FOR TREATMENT OF HBV” (ASSEMBLY BIOSCIENCES, INC., priority 2020, published 2023)

System: HBV
Test: Viral load production from HepAD38 cells, qPCR of the HBV core sequence in supernatant
Assay type: cell-based
Details: Hepatitis B virus, HePAD38, 120 h, HepAD38 cells, 5 days, HBV DNA in supernatant by qPCR; Table 1 ranges; read-out: Activity (viral load lowering EC50)
Procedure: HepAD38 cells grown in a T-150 flask (Corning, cat#: 430825) with Growth Medium (DMEM/F12 (1:1) (Hyclone, cat#: SH30023.02), 1X Pen/Strep (Invitrogen, cat#: 15140-122), 10% FBS (Tissue Culture Biologics, cat#: 101), 250 µg/mL G418 (Alfa Aesar, cat#: J62671), 1 µg/mL Tetracycline (Teknova, cat#: T3320)) were detached with 0.25% trypsin-EDTA (Invitrogen, cat#: 25200-056). Tetracycline-free treatment medium (15 mL DMEM/F12 (1:1) 1× Pen/step, with 2% FBS, Tet-system approved (Clontech, cat#: 631106) were then added to mix, transferred into a 50 ml conical tube (Falcon, cat#: 21008-918,) and spun at 1300 rpm for 5 min. Pelleted cells were then re-suspended/washed with 50 mL of 1X DPBS (Invitrogen, cat#: 14190-136) 2 times and 50 mL treatment medium twice. HepAD38 cells were then re-suspended with 10 mL of treatment medium, syringed and counted. Wells of 96-well clear bottom TC plate (Corning, cat#: 3904,) were seeded at 50.000 cells/well in 180 µL of treatment medium, and 20 µL of either 10% DMSO (Sigma, cat#: D4540) as controls or a 10X solution of test compounds in 10% DMSO in treatment media was added for a final compound concentration starting at 10 µM, and plates were incubated in 5% CO2 incubator at 37° C. for 5 days.
Subsequently viral load production was assayed by quantitative PCR (qPCR) of the HBV core sequence. PCR reaction mixture containing forward primers HBV-f 5′-CTGTGCCTTGGGTGGCTTT-3′ (IDT DNA), Reverse primers HBV-r 5′-[…]-3′ (IDT DNA), Fluorescent TaqMan^tm Probes HBV-probe 5′-FAM/AGCTCCAAA/ZEN/[…]/3IABkFQ-3′ (IDT DNA), 10 µL/well of PerfeCTa® qPCR ToughMix® (Quanta Biosciences, Cat#: 95114-05 K), and 6 µL/well of DEPC water (Alfa Aesar, cat#: J62087) was prepared. Four µL of supernatant was added to 16 µL of the reaction mixture in a qPCR plate (Applied Biosytems, Cat#: 4309849), sealed with a film (Applied Biosystems, Cat#: 4311971), centrifuged for a few seconds, and subsequently run on an Applied Biosystems VIIA7. The PCR mixture was incubated at 45° C. for 5 min, then 95° C. for 10 min, followed by 40 cycles of 10 seconds at 95° C. and 20 seconds at 60° C. Viral load was quantified against known HBV DNA standards by using ViiA™ 7 Software. Viral load in the supernatant from wells with treated cells were compared against viral load in supernatant from DMSO control wells (≥ 3 per plate). Cell viability assay was performed with CellTiter-Glo Luminescent Cell Viability Assay (Promega, cat#: G7573) with modification. Mixed appropriate amount of CellTiter-Glo (CTG) 1X DPBS in a 1:1 ratio, added 100 uL of the mixture to each well followed completely removal of all supernatant in each well without touching cell surface. Incubated the plate at room temperature for 10 min on an orbital shaker, and then read the plate with a plate reader (TECAN M1000 or Envision). EC50 or CC50 values were calculated through curve-fitting of the four-parameter nonlinear-logistic-regression model (GraphPad Prism or Dotmatics). CC50 values were all >10 µM.

Row | SMILES | EC50 [µM]
1 | C#CC1(O)CC2CC(c3nn(C)c(N)c3C(=O)Nc3ccc(F)c(Cl)c3)CC2C1 (stereo not shown) [Example 22, 5-Amino-N-(3-chloro-4-fluorophenyl)-3-(5-ethynyl-5-hydroxyoctahydropentalen-2-yl)-1-methyl-1H-pyrazole-4-carboxamide] | < 0.01
2 | Cn1cc(C2(O)CC3CC(c4nn(C)c(N)c4C(=O)Nc4ccc(F)c(Cl)c4)CC3C2)nn1 (stereo not shown) [Example 23, 5-Amino-N-(3-chloro-4-fluorophenyl)-3-(5-hydroxy-5-(1-methyl-1H-1,2,3-triazol-4-yl)octahydropentalen-2-yl)-1-methyl-1H-pyrazole-4-carboxamide] | < 0.01
3 | Cn1nc(C2CC3CC(O)(c4c(Br)nnn4C)CC3C2)c(C(=O)Nc2ccc(F)c(Cl)c2)c1N (stereo not shown) [Example 24, 5-Amino-3-(5-(4-bromo-1-methyl-1H-1,2,3-triazol-5-yl)-5-hydroxyoctahydropentalen-2-yl)-N-(3-chloro-4-fluorophenyl)-1-methyl-1H-pyrazole-4-carboxamide] | < 0.01
4 | Cn1nncc1C1(O)CC2CC(c3nn(C)c(N)c3C(=O)Nc3ccc(F)c(Cl)c3)CC2C1 (stereo not shown) [Example 25, 5-Amino-N-(3-chloro-4-fluorophenyl)-3-(5-hydroxy-5-(1-methyl-1H-1,2,3-triazol-5-yl)octahydropentalen-2-yl)-1-methyl-1H-pyrazole-4-carboxamide] | < 0.01
5 | Cn1nccc1C1(O)CC2CC(c3nn(C)c(N)c3C(=O)Nc3ccc(F)c(Cl)c3)CC2C1 (stereo not shown) [Example 26, 5-Amino-N-(3-chloro-4-fluorophenyl)-3-(5-hydroxy-5-(1-methyl-1H-pyrazol-5-yl)octahydropentalen-2-yl)-1-methyl-1H-pyrazole-4-carboxamide] | < 0.01
6 | Cn1nc(C2CC3CC(O)(c4c[nH]cn4)CC3C2)c(C(=O)Nc2ccc(F)c(Cl)c2)c1N (stereo not shown) [Example 27, 5-Amino-N-(3-chloro-4-fluorophenyl)-3-(5-hydroxy-5-(1H-imidazol-4-yl)octahydropentalen-2-yl)-1-methyl-1H-pyrazole-4-carboxamide] | 0.01 to 0.05
7 | Cn1nc(C2CC3CC(O)(c4cn[nH]c4)CC3C2)c(C(=O)Nc2ccc(F)c(Cl)c2)c1N (stereo not shown) [Example 28, 5-Amino-N-(3-chloro-4-fluorophenyl)-3-(5-hydroxy-5-(1H-pyrazol-4-yl)octahydropentalen-2-yl)-1-methyl-1H-pyrazole-4-carboxamide] | 0.01 to 0.05
8 | Cn1nc(C2CC3CC(F)(CC(F)F)CC3C2)c(C(=O)Nc2ccc(F)c(Cl)c2)c1N (stereo not shown) [Example 29, 5-Amino-N-(3-chloro-4-fluorophenyl)-3-(5-(2,2-difluoroethyl)-5-fluorooctahydropentalen-2-yl)-1-methyl-1H-pyrazole-4-carboxamide] | 0.01 to 0.05
9 | Cn1nc(C2CC3CC(O)(C(F)F)CC3C2)c(C(=O)Nc2ccc(F)c(Cl)c2)c1N (stereo not shown) [Example 30, 5-Amino-N-(3-chloro-4-fluorophenyl)-3-(5-(difluoromethyl)-5-hydroxyoctahydropentalen-2-yl)-1-methyl-1H-pyrazole-4-carboxamide] | 0.01 to 0.05
10 | Cn1nc(C2CC3CC(O)(C(F)(F)F)CC3C2)c(C(=O)Nc2ccc(F)c(Cl)c2)c1N (stereo not shown) [Example 31, 5-Amino-N-(3-chloro-4-fluorophenyl)-3-(5-hydroxy-5-(trifluoromethyl)octahydropentalen-2-yl)-1-methyl-1H-pyrazole-4-carboxamide] | 0.01 to 0.05
11 | Cn1nc(C2CC3CC(O)(C(F)(F)C(F)(F)F)CC3C2)c(C(=O)Nc2ccc(F)c(Cl)c2)c1N (stereo not shown) [Example 32, 5-Amino-N-(3-chloro-4-fluorophenyl)-3-(5-hydroxy-5-(perfluoroethyl)octahydropentalen-2-yl)-1-methyl-1H-pyrazole-4-carboxamide] | 0.01 to 0.05
12 | Cn1nc(C2CC3CC(O)(C(F)(F)S(=O)(=O)c4ccccc4)CC3C2)c(C(=O)Nc2ccc(F)c(Cl)c2)c1N (stereo not shown) [Example 33, 5-Amino-N-(3-chloro-4-fluorophenyl)-3-(5-(difluoro(phenylsulfonyl)methyl)-5-hydroxyoctahydropentalen-2-yl)-1-methyl-1H-pyrazole-4-carboxamide] | 0.01 to 0.05
13 | Cn1nc(C2CC3CC(O)(C(F)(F)S(=O)(=O)c4ccc(Cl)cc4)CC3C2)c(C(=O)Nc2ccc(F)c(Cl)c2)c1N (stereo not shown) [Example 34, 5-Amino-N-(3-chloro-4-fluorophenyl)-3-(5-(((4-chlorophenyl)sulfonyl)difluoromethyl)-5-hydroxyoctahydropentalen-2-yl)-1-methyl-1H-pyrazole-4-carboxamide] | 0.01 to 0.05
14 | Cc1ccc(S(=O)(=O)C(F)(F)C2(O)CC3CC(c4nn(C)c(N)c4C(=O)Nc4ccc(F)c(Cl)c4)CC3C2)cc1 (stereo not shown) [Example 35, 5-Amino-N-(3-chloro-4-fluorophenyl)-3-(5-(difluoro(tosyl)methyl)-5-hydroxyoctahydropentalen-2-yl)-1-methyl-1H-pyrazole-4-carboxamide] | 0.01 to 0.05
15 | Cc1ccc([S+]([O-])C(F)(F)C2(O)CC3CC(c4nn(C)c(N)c4C(=O)Nc4ccc(F)c(Cl)c4)CC3C2)cc1 (stereo not shown) [Example 36, 5-Amino-N-(3-chloro-4-fluorophenyl)-3-(5-(difluoro(p-tolylsulfinyl)methyl)-5-hydroxyoctahydropentalen-2-yl)-1-methyl-1H-pyrazole-4-carboxamide] | 0.01 to 0.05
16 | Cn1nc(C2CC3CC(O)(CS(=O)(=O)c4cccc(F)c4)CC3C2)c(C(=O)Nc2ccc(F)c(Cl)c2)c1N (stereo not shown) [Example 37, 5-Amino-N-(3-chloro-4-fluorophenyl)-3-(5-(((3-fluorophenyl)sulfonyl)methyl)-5-hydroxyoctahydropentalen-2-yl)-1-methyl-1H-pyrazole-4-carboxamide] | < 0.01
17 | Cn1cnc(C(=O)NCC2CC3CC(c4nn(C)c(N)c4C(=O)Nc4ccc(F)c(Cl)c4)CC3C2)c1 (stereo not shown) [Example 38, 5-Amino-N-(3-chloro-4-fluorophenyl)-1-methyl-3-(5-((1-methyl-1H-imidazole-4-carboxamido)methyl)octahydropentalen-2-yl)-1H-pyrazole-4-carboxamide] | < 0.01
18 | CC(C)C(=O)NCC1CC2CC(c3nn(C)c(N)c3C(=O)Nc3ccc(F)c(Cl)c3)CC2C1 (stereo not shown) [Example 45, 5-Amino-N-(3-chloro-4-fluorophenyl)-3-(5-(isobutyramidomethyl)octahydropentalen-2-yl)-1-methyl-1H-pyrazole-4-carboxamide] | < 0.01
19 | Cn1nc(C2CC3CC(CNC(=O)C4CCC4)CC3C2)c(C(=O)Nc2ccc(F)c(Cl)c2)c1N (stereo not shown) [Example 46, 5-Amino-N-(3-chloro-4-fluorophenyl)-3-(5-(cyclobutanecarboxamidomethyl)octahydropentalen-2-yl)-1-methyl-1H-pyrazole-4-carboxamide] | < 0.01
20 | Cn1nc(C2CC3CC(CNC(=O)C4CCCC4)CC3C2)c(C(=O)Nc2ccc(F)c(Cl)c2)c1N (stereo not shown) [Example 47, 5-Amino-N-(3-chloro-4-fluorophenyl)-3-(5-(cyclopentanecarboxamidomethyl)octahydropentalen-2-yl)-1-methyl-1H-pyrazole-4-carboxamide] | < 0.01
21 | COC(=O)NCC1CC2CC(c3nn(C)c(N)c3C(=O)Nc3ccc(F)c(Cl)c3)CC2C1 (stereo not shown) [Example 48, Methyl ((5-(5-amino-4-((3-chloro-4-fluorophenyl)carbamoyl)-1-methyl-1H-pyrazol-3-yl)octahydropentalen-2-yl)methyl)carbamate] | < 0.01
22 | CNC(=O)NCC1CC2CC(c3nn(C)c(N)c3C(=O)Nc3ccc(F)c(Cl)c3)CC2C1 (stereo not shown) [Example 49, 5-Amino-N-(3-chloro-4-fluorophenyl)-1-methyl-3-(5-((3-methylureido)methyl)octahydropentalen-2-yl)-1H-pyrazole-4-carboxamide] | < 0.01
